# Measured values: publication PMC6700223 (Frontiers in Microbiology, 2019)
# Target: HR1-1 peptide (HR1 domain of LASV GP2) (Lassa virus, UniProt P08669)
# Assay: biochemical
# Assay type: binding
# Chain of HR1-1 peptide (HR1 domain of LASV GP2) (P08669 296-345 limits assumed): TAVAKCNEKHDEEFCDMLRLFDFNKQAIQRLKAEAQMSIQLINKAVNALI
Structure (SMILES),Binding to HR1-1 peptide (in words),Response (concentration 3.75 μM),Response (concentration 7.5 μM),Response (concentration 15 μM),Response (concentration 30 μM),kon,koff (read-out: Kdis)
CC[C@H](C)[C@H](NC(=O)[C@H](CC(=O)O)NC(=O)[C@H](CC(=O)O)NC(=O)[C@H](CO)NC(=O)[C@H](Cc1ccccc1)NC(=O)[C@H](Cc1c[nH]cn1)NC(=O)[C@@H](NC(=O)[C@H](CCC(=O)O)NC(=O)[C@H](CC(N)=O)NC(=O)[C@H](CC(C)C)NC(=O)[C@H](Cc1ccc(O)cc1)NC(=O)[C@@H](N)CO)[C@@H](C)O)C(=O)N[C@@H](CCC(=O)O)C(=O)N[C@@H](CCC(N)=O)C(=O)N[C@@H](CCC(N)=O)C(=O)N[C@@H](C)C(=O)N[C@@H](CC(=O)O)C(=O)N[C@@H](CC(N)=O)C(=O)N[C@@H](CCSC)C(=O)N[C@H](C(=O)N[C@H](C(=O)N[C@@H](CCC(=O)O)C(=O)N[C@@H](CCSC)C(=O)N[C@@H](CC(C)C)C(=O)N[C@@H](CCC(N)=O)C(=O)N[C@@H](CCCCN)C(=O)N[C@@H](CCC(=O)O)C(=O)N[C@@H](Cc1ccc(O)cc1)C(=O)N[C@@H](CCSC)C(=O)N[C@@H](CCC(=O)O)C(=O)N[C@@H](CCCNC(=N)N)C(=O)N[C@@H](CCC(N)=O)C(=O)NCC(=O)N[C@@H](CCCCN)C(=O)N[C@H](C(=O)N1CCC[C@H]1C(=O)N[C@@H](CC(C)C)C(=O)O)[C@@H](C)O)[C@@H](C)O)[C@@H](C)CC [HR2-2],strongly bind,0.0341 nm,0.0743 nm,0.0958 nm,0.119 nm,,
CC[C@H](C)[C@H](NC(=O)[C@H](CC(=O)O)NC(=O)[C@H](CC(=O)O)NC(=O)[C@H](CO)NC(=O)[C@H](Cc1ccccc1)NC(=O)[C@H](Cc1c[nH]cn1)NC(=O)[C@@H](N)[C@@H](C)O)C(=O)N[C@@H](CCC(=O)O)C(=O)N[C@@H](CCC(N)=O)C(=O)N[C@@H](CCC(N)=O)C(=O)N[C@@H](C)C(=O)N[C@@H](CC(=O)O)C(=O)N[C@@H](CC(N)=O)C(=O)N[C@@H](CCSC)C(=O)N[C@H](C(=O)N[C@H](C(=O)N[C@@H](CCC(=O)O)C(=O)N[C@@H](CCSC)C(=O)N[C@@H](CC(C)C)C(=O)N[C@@H](CCC(N)=O)C(=O)N[C@@H](CCCCN)C(=O)N[C@@H](CCC(=O)O)C(=O)N[C@@H](Cc1ccc(O)cc1)C(=O)N[C@@H](CCSC)C(=O)N[C@@H](CCC(=O)O)C(=O)O)[C@@H](C)O)[C@@H](C)CC [HR2-3],,,,,,1420 M⁻¹ s⁻¹,0.0823 s⁻¹
